In patent US6355799B1, “Substituted benzene compounds, process for their preparation, and herbicidal and defoliant compositions containing them” (ISK Americas Incorporated, priority 1997, dated 2002):

Tests used:
Format in all cases: in vivo
[1] = system: redroot pigweed (Amaranthus retroflexus, AMARE); assay: Pre-emerge test, greenhouse herbicide activity screening; conditions: for Pre-emerge herbicidal activity, phytotoxicity rating AMARE: rating scale 0-100, 14 days after application; for Pre-emerge Herbicidal Activity, phytotoxicity rating (0-100), AMARE: rated 14 days after application, 0 = no damage, 100 = complete death
In short: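 Herbicidal damage is scored 0 (none) to 100 (complete plant death) two weeks after a simulated field spray. Rates span 15–1000 g ai/ha, delivered in acetone at 187 l/ha. For post-emergence treatments, plants have 2–3 leaves and the spray carries 0.25% v/v non-ionic surfactant.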

[2] = system: velvetleaf (Abutilon theophrasti, ABUTH); assay: Post-emerge test, greenhouse herbicide activity screening; conditions: for phytotoxicity rating ABUTH: rating scale 0-100
In short: (§1)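 Plants grown in 10 cm pots of sandy loam mix received acetone-dissolved compounds through a moving flat-fan nozzle. Doses ranged from 15 to 1000 g ai/ha. Pre-emerge pots were seeded one day earlier, post-emerge pots 8–21 days earlier. Fourteen days on, each pot was graded 0–100 for damage.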

[3] = system: ivyleaf morningglory (Ipomoea hederacea, IPOHE); assay: as above; conditions: for phytotoxicity rating IPOHE: rating scale 0-100
In short: as §1

[4] = system: redroot pigweed (Amaranthus retroflexus, AMARE); assay: as above; conditions: for phytotoxicity rating AMARE: rating scale 0-100
In short: as §1

[5] = system: barnyardgrass (Echinochloa crus-galli, ECHCG); assay: as above; conditions: for phytotoxicity rating ECHCG: rating scale 0-100
In short: as §1

[6] = system: sicklepod (Cassia obtusifolia, CASOB); assay: as above; conditions: for phytotoxicity rating CASOB: rating scale 0-100
In short: as §1

[7] = system: lambsquarters (Chenopodium album, CHEAL); assay: as above; conditions: for phytotoxicity rating CHEAL: rating scale 0-100
In short: as §1

[8] = system: johnsongrass (Sorghum halepense, SORHA); assay: as above; conditions: for phytotoxicity rating SORHA: rating scale 0-100
In short: as §1

[9] = system: green foxtail (Setaria viridis, SETVI); assay: as above; conditions: for phytotoxicity rating SETVI: rating scale 0-100
In short: as §1

[10] = system: large crabgrass (Digitaria sanguinalis, DIGSA); assay: as above; conditions: for phytotoxicity rating DIGSA: rating scale 0-100
In short: as §1

[11] = system: velvetleaf (Abutilon theophrasti, ABUTH); assay: Pre-emerge test, greenhouse herbicide activity screening; conditions: for Pre-emerge herbicidal activity, phytotoxicity rating ABUTH: rating scale 0-100, 14 days after application; for Pre-emerge Herbicidal Activity, phytotoxicity rating (0-100), ABUTH: rated 14 days after application, 0 = no damage, 100 = complete death
In short: (§2)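 Rating: 0–100 visual injury, 14 DAA. Application: acetone, 187 l/ha, 15–1000 g ai/ha, flat-fan track sprayer with nozzle 40–45 cm above soil or canopy. Post-emerge runs used 0.25% v/v surfactant on 2–3 leaf plants.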

[12] = system: ivyleaf morningglory (Ipomoea hederacea, IPOHE); assay: as above; conditions: for Pre-emerge herbicidal activity, phytotoxicity rating IPOHE: rating scale 0-100, 14 days after application; for Pre-emerge Herbicidal Activity, phytotoxicity rating (0-100), IPOHE: rated 14 days after application, 0 = no damage, 100 = complete death
In short: as §2

[13] = system: barnyardgrass (Echinochloa crus-galli, ECHCG); assay: as above; conditions: for Pre-emerge herbicidal activity, phytotoxicity rating ECHCG: rating scale 0-100, 14 days after application; for Pre-emerge Herbicidal Activity, phytotoxicity rating (0-100), ECHCG: rated 14 days after application, 0 = no damage, 100 = complete death
In short: as §2

[14] = system: sicklepod (Cassia obtusifolia, CASOB); assay: as above; conditions: for Pre-emerge herbicidal activity, phytotoxicity rating CASOB: rating scale 0-100, 14 days after application; for Pre-emerge Herbicidal Activity, phytotoxicity rating (0-100), CASOB: rated 14 days after application, 0 = no damage, 100 = complete death
In short: as §2

[15] = system: common ragweed (Ambrosia artemisizfolia L., AMBEL); assay: as above; conditions: for Pre-emerge herbicidal activity, phytotoxicity rating AMBEL: rating scale 0-100, 14 days after application; for Pre-emerge Herbicidal Activity, phytotoxicity rating (0-100), AMBEL: rated 14 days after application, 0 = no damage, 100 = complete death
In short: as §2

[16] = system: lambsquarters (Chenopodium album, CHEAL); assay: as above; conditions: for Pre-emerge herbicidal activity, phytotoxicity rating CHEAL: rating scale 0-100, 14 days after application; for Pre-emerge Herbicidal Activity, phytotoxicity rating (0-100), CHEAL: rated 14 days after application, 0 = no damage, 100 = complete death
In short: as §2

[17] = system: johnsongrass (Sorghum halepense, SORHA); assay: as above; conditions: for Pre-emerge herbicidal activity, phytotoxicity rating SORHA: rating scale 0-100, 14 days after application; for Pre-emerge Herbicidal Activity, phytotoxicity rating (0-100), SORHA: rated 14 days after application, 0 = no damage, 100 = complete death
In short: as §2

[18] = system: green foxtail (Setaria viridis, SETVI); assay: as above; conditions: for Pre-emerge herbicidal activity, phytotoxicity rating SETVI: rating scale 0-100, 14 days after application; for Pre-emerge Herbicidal Activity, phytotoxicity rating (0-100), SETVI: rated 14 days after application, 0 = no damage, 100 = complete death
In short: as §2

[19] = system: large crabgrass (Digitaria sanguinalis, DIGSA); assay: as above; conditions: for Pre-emerge herbicidal activity, phytotoxicity rating DIGSA: rating scale 0-100, 14 days after application; for Pre-emerge Herbicidal Activity, phytotoxicity rating (0-100), DIGSA: rated 14 days after application, 0 = no damage, 100 = complete death
In short: as §2

[20] = Rate 250 g ai/ha, rating scale 0-100 (0 no damage, 100 complete death), 14 days after application
[21] = post-emerge, 63 g ai/ha, 14 days after application
[22] = post-emerge, 250 g ai/ha, 14 days after application

O=C(Nc1cc(Cl)ccc1N1C(=O)c2ccccc2C1=O)c1ccc2ccccc2c1 [Compound 13-5, N-[4-chloro-2-(2-naphthoylamino)phenyl]phthalimide]
Pre-emerge herbicidal activity, phytotoxicity rating AMARE ([1]; 63 g ai/ha): 30 | Pre-emerge herbicidal activity, phytotoxicity rating AMARE ([1]; 250 g ai/ha): 95 | pest or weed control at 63 g/ha ([2]; Abutilon theophrasti, post-emergence, 336 h, post-emerge, 63 g ai/ha, phytotoxicity rating 0-100 at 14 days after application, read-out: Post-emerge Herbicidal Activity ABUTH): 70% | Post-emerge Herbicidal Activity, phytotoxicity rating ABUTH [2, 20]: 70 | pest or weed control at 63 g/ha ([3]; Ipomoea, post-emergence, 336 h, post-emerge, 63 g ai/ha, phytotoxicity rating 0-100 at 14 days after application, read-out: Post-emerge Herbicidal Activity IPOHE): 50% | Post-emerge Herbicidal Activity, phytotoxicity rating IPOHE [3, 20]: 60 | pest or weed control at 63 g/ha ([4]; Amaranthus retroflexus, post-emergence, 336 h, post-emerge, 63 g ai/ha, phytotoxicity rating 0-100 at 14 days after application, read-out: Post-emerge Herbicidal Activity AMARE): 70% | Post-emerge Herbicidal Activity, phytotoxicity rating AMARE [4, 20]: 75 | pest or weed control at 63 g/ha ([5]; Echinochloa crus-galli, post-emergence, 336 h, post-emerge, 63 g ai/ha, phytotoxicity rating 0-100 at 14 days after application, read-out: Post-emerge Herbicidal Activity ECHCG): 0% | Post-emerge Herbicidal Activity, phytotoxicity rating ECHCG [5, 20]: 0 | Post-emerge Herbicidal Activity, phytotoxicity rating CASOB [6, 20]: 30 | pest or weed control at 63 g/ha ([6]; Senna obtusifolia, post-emergence, 336 h, post-emerge, 63 g ai/ha, phytotoxicity rating 0-100 at 14 days after application, read-out: Post-emerge Herbicidal Activity CASOB): 40% | pest or weed control at 63 g/ha ([7]; Chenopodium album, post-emergence, 336 h, post-emerge, 63 g ai/ha, phytotoxicity rating 0-100 at 14 days after application, read-out: Post-emerge Herbicidal Activity CHEAL): 95% | Post-emerge Herbicidal Activity, phytotoxicity rating CHEAL [7, 20]: 90 | Post-emerge Herbicidal Activity, phytotoxicity rating SORHA [8, 20]: 0 | pest or weed control at 63 g/ha ([8]; Sorghum halepense, post-emergence, 336 h, post-emerge, 63 g ai/ha, phytotoxicity rating 0-100 at 14 days after application, read-out: Post-emerge Herbicidal Activity SORHA): 0% | Post-emerge Herbicidal Activity, phytotoxicity rating SETVI [9, 20]: 10 | pest or weed control at 63 g/ha ([9]; Setaria viridis, post-emergence, 336 h, post-emerge, 63 g ai/ha, phytotoxicity rating 0-100 at 14 days after application, read-out: Post-emerge Herbicidal Activity SETVI): 0% | pest or weed control at 63 g/ha ([10]; Digitaria sanguinalis, post-emergence, 336 h, post-emerge, 63 g ai/ha, phytotoxicity rating 0-100 at 14 days after application, read-out: Post-emerge Herbicidal Activity DIGSA): 0% | Post-emerge Herbicidal Activity, phytotoxicity rating DIGSA [10, 20]: 20 | Pre-emerge herbicidal activity, phytotoxicity rating ABUTH ([11]; 63 g ai/ha): 0 | Pre-emerge herbicidal activity, phytotoxicity rating ABUTH ([11]; 250 g ai/ha): 0 | Pre-emerge herbicidal activity, phytotoxicity rating IPOHE ([12]; 63 g ai/ha): 0 | Pre-emerge herbicidal activity, phytotoxicity rating IPOHE ([12]; 250 g ai/ha): 0 | Pre-emerge herbicidal activity, phytotoxicity rating ECHCG ([13]; 63 g ai/ha): 0 | Pre-emerge herbicidal activity, phytotoxicity rating ECHCG ([13]; 250 g ai/ha): 0 | Pre-emerge herbicidal activity, phytotoxicity rating CASOB ([14]; 63 g ai/ha): 0 | Pre-emerge herbicidal activity, phytotoxicity rating CASOB ([14]; 250 g ai/ha): 0 | Pre-emerge herbicidal activity, phytotoxicity rating AMBEL ([15]; 63 g ai/ha): 0 | Pre-emerge herbicidal activity, phytotoxicity rating AMBEL ([15]; 250 g ai/ha): 0 | Pre-emerge herbicidal activity, phytotoxicity rating CHEAL ([16]; 63 g ai/ha): 20 | Pre-emerge herbicidal activity, phytotoxicity rating CHEAL ([16]; 250 g ai/ha): 50 | Pre-emerge herbicidal activity, phytotoxicity rating SORHA ([17]; 63 g ai/ha): 0 | Pre-emerge herbicidal activity, phytotoxicity rating SORHA ([17]; 250 g ai/ha): 30 | Pre-emerge herbicidal activity, phytotoxicity rating SETVI ([18]; 63 g ai/ha): 30 | Pre-emerge herbicidal activity, phytotoxicity rating SETVI ([18]; 250 g ai/ha): 50 | Pre-emerge herbicidal activity, phytotoxicity rating DIGSA ([19]; 63 g ai/ha): 0 | Pre-emerge herbicidal activity, phytotoxicity rating DIGSA ([19]; 250 g ai/ha): 10

Cc1c(Cl)cc(F)c(-n2c(=O)cc(C(F)(F)F)n(C)c2=O)c1NC(=O)c1ccc2ccccc2c1 [Compound 2-122, 3-[4-chloro-6-fluoro3-methyl-2-(2-naphthoyl)aminophenyl]-1-methyl-6-trifluoromethyl-2,4(1H, 3H)-pyrimidinedione]
Pre-emerge Herbicidal Activity, phytotoxicity rating (0-100), AMARE ([1]; 63 g ai/ha): 100 | Pre-emerge Herbicidal Activity, phytotoxicity rating (0-100), AMARE ([1]; 250 g ai/ha): 100 | phytotoxicity rating ABUTH [2, 21]: 100 | phytotoxicity rating ABUTH [2, 22]: 100 | phytotoxicity rating IPOHE [3, 21]: 100 | phytotoxicity rating IPOHE [3, 22]: 80 | phytotoxicity rating AMARE [4, 21]: 100 | phytotoxicity rating AMARE [4, 22]: 100 | phytotoxicity rating ECHCG [5, 21]: 30 | phytotoxicity rating ECHCG [5, 22]: 50 | phytotoxicity rating CASOB [6, 21]: 100 | phytotoxicity rating CASOB [6, 22]: 100 | phytotoxicity rating CHEAL [7, 21]: 100 | phytotoxicity rating CHEAL [7, 22]: 100 | phytotoxicity rating SORHA [8, 21]: 30 | phytotoxicity rating SORHA [8, 22]: 60 | phytotoxicity rating SETVI [9, 21]: 90 | phytotoxicity rating SETVI [9, 22]: 95 | phytotoxicity rating DIGSA [10, 21]: 40 | phytotoxicity rating DIGSA [10, 22]: 60 | Pre-emerge Herbicidal Activity, phytotoxicity rating (0-100), ABUTH ([11]; 63 g ai/ha): 100 | Pre-emerge Herbicidal Activity, phytotoxicity rating (0-100), ABUTH ([11]; 250 g ai/ha): 100 | Pre-emerge Herbicidal Activity, phytotoxicity rating (0-100), IPOHE ([12]; 63 g ai/ha): 30 | Pre-emerge Herbicidal Activity, phytotoxicity rating (0-100), IPOHE ([12]; 250 g ai/ha): 90 | Pre-emerge Herbicidal Activity, phytotoxicity rating (0-100), ECHCG ([13]; 63 g ai/ha): 20 | Pre-emerge Herbicidal Activity, phytotoxicity rating (0-100), ECHCG ([13]; 250 g ai/ha): 80 | Pre-emerge Herbicidal Activity, phytotoxicity rating (0-100), CASOB ([14]; 63 g ai/ha): 30 | Pre-emerge Herbicidal Activity, phytotoxicity rating (0-100), CASOB ([14]; 250 g ai/ha): 50 | Pre-emerge Herbicidal Activity, phytotoxicity rating (0-100), AMBEL ([15]; 63 g ai/ha): 30 | Pre-emerge Herbicidal Activity, phytotoxicity rating (0-100), AMBEL ([15]; 250 g ai/ha): 90 | Pre-emerge Herbicidal Activity, phytotoxicity rating (0-100), CHEAL ([16]; 63 g ai/ha): 100 | Pre-emerge Herbicidal Activity, phytotoxicity rating (0-100), CHEAL ([16]; 250 g ai/ha): 100 | Pre-emerge Herbicidal Activity, phytotoxicity rating (0-100), SORHA ([17]; 63 g ai/ha): 30 | Pre-emerge Herbicidal Activity, phytotoxicity rating (0-100), SORHA ([17]; 250 g ai/ha): 60 | Pre-emerge Herbicidal Activity, phytotoxicity rating (0-100), SETVI ([18]; 63 g ai/ha): 80 | Pre-emerge Herbicidal Activity, phytotoxicity rating (0-100), SETVI ([18]; 250 g ai/ha): 100 | Pre-emerge Herbicidal Activity, phytotoxicity rating (0-100), DIGSA ([19]; 63 g ai/ha): 100 | Pre-emerge Herbicidal Activity, phytotoxicity rating (0-100), DIGSA ([19]; 250 g ai/ha): 100
